In patent US20090111801A1, “SUBSTITUTED PYRAZINONE DERIVATIVES FOR USE AS A MEDICINE” (Janssen Pharmaceutica N.V., priority 2006, published 2009):

Experiments:
hα2A receptor = biological target: T1, hα2A receptor (Homo sapiens, UniProt P08913); assay: Radioligand binding experiment for α2A-adrenoceptor ([3H]raulwolscine, CHO cell membranes); conditions: [3H]raulwolscine binding; for IC50: read-out: h-α2A pIC50 (converted)
T1 construct: expressed in transfected cells; host or cells: CHO cells, stably transfected; membrane preparation
T1 sequence (P08913 1-465): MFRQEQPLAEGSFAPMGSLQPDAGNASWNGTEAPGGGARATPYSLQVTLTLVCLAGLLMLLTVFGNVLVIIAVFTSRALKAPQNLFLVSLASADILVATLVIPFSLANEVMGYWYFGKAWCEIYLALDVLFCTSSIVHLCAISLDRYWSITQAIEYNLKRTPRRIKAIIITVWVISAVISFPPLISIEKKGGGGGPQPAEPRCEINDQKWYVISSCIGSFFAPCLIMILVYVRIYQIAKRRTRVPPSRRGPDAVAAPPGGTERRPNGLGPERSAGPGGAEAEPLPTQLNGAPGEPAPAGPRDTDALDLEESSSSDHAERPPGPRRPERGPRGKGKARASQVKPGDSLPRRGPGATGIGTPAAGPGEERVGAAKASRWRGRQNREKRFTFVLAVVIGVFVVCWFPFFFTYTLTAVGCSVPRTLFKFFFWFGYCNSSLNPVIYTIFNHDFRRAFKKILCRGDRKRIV
Description: (§1) The interaction of a compound of Formula (I) with α2-adrenoceptor receptors was assessed in in vitro radioligand binding experiments. In general, a low concentration of a radioligand with a high binding affinity for a particular receptor or transporter is incubated with a sample of a tissue preparation enriched in a particular receptor or transporter or with a preparation of cells expressing cloned human receptors in a buffered medium. During the incubation, the radioligand binds to the receptor or transporter. When equilibrium of binding is reached, the receptor bound radioactivity is separated from the non-bound radioactivity, and the receptor- or transporter-bound activity is counted. The interaction of the test compounds with the receptor is assessed in competition binding experiments. Various concentrations of the test compound are added to the incubation mixture containing the receptor- or transporter preparation and the radioligand. The test compound in proportion to its binding affinity and its concentration inhibits binding of the radioligand. The radioligand used for hα2A and hα2C receptor binding was [^3H]-raulwolscine.
(§2) CHO cells, stabile transfected with human adrenergic-α2A and α2C receptor cDNA, were cultured in Dulbecco's Modified Eagle's Medium (DMEM)/Nutrient mixture Ham's F12 (ratio 1:1)(Gibco, Gent-Belgium) supplemented with 10% heat inactivated fetal calf serum (Life Technologies, Merelbeke-Belgium) and antibiotics (100 IU/ml penicillin G, 100 μg/ml streptomycin sulphate, 110 μg/ml pyruvic acid and 100 μg/ml L-glutamine). One day before collection, cells were induced with 5 mM sodiumbutyrate. Upon 80-90% of confluence, cells were scraped in phosphate buffered saline without Ca^2+ and Mg^2+ and collected by centrifugation at 1500×g for 10 minutes. The cells were homogenised in Tris-HCl 50 mM using an Ultraturrax homogenizer and centrifuged for 10 minutes at 23,500×g. The pellet was washed once by resuspension and rehomogenization and the final pellet was resuspended in Tris-HCl, divided in 1 ml aliquots and stored at −70° C.
(§3) Membranes were thawed and re-homogenized in incubation buffer (glycylglycine 25 mM, pH 8.0). […] Filters were rinsed extensively with ice-cold rinsing buffer (Tris-HCl 50 mM pH 7.4). Filter-bound radioactivity was determined by scintillation counting in a Topcount (Packard, Meriden, Conn.) and results were expressed as counts per minute (cpm). Non-specific binding was determined in the presence of 1 μM oxymetazoline for the hα2A receptor and 1 μM spiroxatrine for hα2C receptor.
(§4) Data from assays in the presence of compound were calculated as a percentage of total binding measured in the absence of test compound. Inhibition curves, plotting percent of total binding versus the log value of the concentration of the test compound, were automatically generated, and sigmoidal inhibition curves were fitted using non-linear regression. The pIC50 values of test compounds were derived from individual curves.

hα2C receptor = biological target: T2, hα2C receptor (Homo sapiens, UniProt P18825); assay: Radioligand binding experiment for α2C-adrenoceptor ([3H]raulwolscine, CHO cell membranes); conditions: [3H]raulwolscine binding; for IC50: read-out: h-α2C pIC50 (converted)
T2 construct: expressed in transfected cells; host or cells: CHO cells, stably transfected; membrane preparation
T2 sequence (P18825 1-462): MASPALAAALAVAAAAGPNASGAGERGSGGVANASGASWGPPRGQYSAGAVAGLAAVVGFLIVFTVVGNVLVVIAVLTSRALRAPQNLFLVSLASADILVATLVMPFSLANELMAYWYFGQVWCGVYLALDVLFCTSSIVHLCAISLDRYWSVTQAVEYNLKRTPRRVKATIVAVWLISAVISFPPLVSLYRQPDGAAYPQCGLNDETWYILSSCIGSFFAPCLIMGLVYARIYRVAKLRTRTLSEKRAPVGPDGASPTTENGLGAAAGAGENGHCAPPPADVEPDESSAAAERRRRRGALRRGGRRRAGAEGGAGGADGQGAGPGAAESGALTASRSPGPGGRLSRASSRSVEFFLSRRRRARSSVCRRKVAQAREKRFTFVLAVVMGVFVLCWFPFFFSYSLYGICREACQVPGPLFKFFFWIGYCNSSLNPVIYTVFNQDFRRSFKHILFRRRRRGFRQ
Description: as §1, §2, §3, §4

5HT-Transporter = biological target: T3, 5HT-Transporter (Homo sapiens, UniProt P31645); assay: Binding experiment for the 5HT-transporter ([3H]paroxetine, human platelet membranes); conditions: [3H]paroxetine 0.5 nM; for IC50: read-out: h-5HTT pIC50 (converted)
T3 construct: Human platelet membranes (Oceanix Biosciences Corporation, Hanover, Md., USA) were thawed; tissue Oceanix Biosciences Corporation, Hanover, Md., USA; host or cells: human platelet membranes
Description: as §1
Human platelet membranes (Oceanix Biosciences Corporation, Hanover, Md., USA) were thawed, diluted in buffer (Tris-HCl 50 mM, 120 mM NaCl and 5 mM KCl) and quickly (max 3 s) homogenised with an Ultraturrax homogenizer. […] Incubation was stopped by rapid filtration of the incubation mixture over GF/B filters, pre-wetted with 0.1% polyethyleneamine, using a Filtermate196 harvester (Packard, Meriden, Conn.). Filters were rinsed extensively with ice-cold buffer and radioactivity on the filters was counted in a Topcount liquid scintillation counter (Packard, Meriden, Conn.). Data were expressed as cpm. Imipramine (at 1 μM final concentration) was used to determine the non-specific binding.
as §4

T3 sequence (P31645 whole entry): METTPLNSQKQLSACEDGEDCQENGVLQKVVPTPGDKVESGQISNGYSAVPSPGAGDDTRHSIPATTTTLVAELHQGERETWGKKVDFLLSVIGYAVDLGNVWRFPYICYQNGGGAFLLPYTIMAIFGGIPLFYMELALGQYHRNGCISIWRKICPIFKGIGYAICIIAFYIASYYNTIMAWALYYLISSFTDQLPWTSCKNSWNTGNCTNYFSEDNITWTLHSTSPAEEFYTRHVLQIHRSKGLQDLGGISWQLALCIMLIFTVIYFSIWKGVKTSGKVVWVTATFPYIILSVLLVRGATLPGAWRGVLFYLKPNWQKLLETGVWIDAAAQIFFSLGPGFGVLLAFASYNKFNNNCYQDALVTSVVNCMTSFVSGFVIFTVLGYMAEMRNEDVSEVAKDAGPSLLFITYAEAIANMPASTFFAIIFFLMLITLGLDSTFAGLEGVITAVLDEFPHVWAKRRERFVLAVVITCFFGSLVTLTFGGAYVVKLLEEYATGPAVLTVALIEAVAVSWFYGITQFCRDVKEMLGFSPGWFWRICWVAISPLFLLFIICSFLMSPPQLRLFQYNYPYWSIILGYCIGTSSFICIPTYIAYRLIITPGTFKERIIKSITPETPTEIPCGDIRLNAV

Row | Compound | IC50 (hα2A receptor) [µM] | IC50 (hα2C receptor) [µM] | IC50 (5HT-Transporter) [µM] | h-α2A pIC50 (hα2A receptor) | h-α2C pIC50 (hα2C receptor) | h-5HTT pIC50 (5HT-Transporter)
1 | C/C(=C\c1ccccc1)CN1CCC(Nc2nccn(CC(=O)c3ccc4c(c3)NC(=O)CO4)c2=O)CC1 [6-15] | 0.0158 | 0.02 | 1 |  |  | 
2 | C/C(=C\c1ccccc1)CN1CCC(Nc2nccn(Cc3ccc(CNS(=O)(=O)c4ccc(C(F)(F)F)cc4)cc3)c2=O)CC1 [1-163] | 0.158 | 0.0398 | 0.794 |  |  | 
3 | O=C1c2ccccc2C(=O)N1CCCn1ccnc(NC2CCN(C/C=C/c3ccccc3)CC2)c1=O [16-8] | 0.501 | 0.0126 | 0.2 |  |  | 
4 | C/C(=C\c1ccccc1)CN1CCC(Nc2nccn(CC(=O)N3CCC(Cc4ccccc4)CC3)c2=O)CC1 [2-13] | 0.1 | 0.00501 | 0.251 |  |  | 
5 | C/C(=C\c1ccccc1)CN1CCC(Nc2nccn(CC(=O)N(CCO)Cc3ccccc3)c2=O)CC1 [1-67] | 0.1 | 0.00316 | 1 |  |  | 
6 | CCN(CC)c1cccc(-n2ccnc(NC3CCN(C/C(C)=C/c4ccccc4)CC3)c2=O)c1 [1-17] | 0.00501 | 0.00158 | 1 |  |  | 
7 | C/C(=C\c1ccccc1)CN1CCC(Nc2nccn(-c3ccc(N4CCC(N5CCCC5)CC4)cc3)c2=O)CC1 [2-19] | 0.0501 | 0.00501 | 0.631 |  |  | 
8 | C/C(=C\c1ccccc1)CN1CCC(Nc2nccn(Cc3cccc(NCCN(C)C)c3)c2=O)CC1 [1-103] | 0.0251 | 0.00316 | 0.2 |  |  | 
9 | C/C(=C\c1ccccc1)CN1CCC(Nc2nccn(CCCN(C)C(=O)OC(C)(C)C)c2=O)CC1 [1-92] | 0.1 | 0.00631 | 1.26 |  |  | 
10 | C/C(=C\c1ccccc1)CN1CCC(Nc2nccn(CCCNC(=O)CC3CCCC3)c2=O)CC1 [1-33] | 0.2 | 0.0126 | 0.794 |  |  | 
11 | C/C(=C\c1ccccc1)CN1CCC(Nc2nccn(CC#CCN3C(=O)c4ccccc4C3=O)c2=O)CC1 [2-53] | 0.2 | 0.00316 | 0.0631 |  |  | 
12 | C/C(=C\c1ccccc1)CN1CCC(Nc2nccn(-c3cccc(N4CCC(N5CCCC5)CC4)c3)c2=O)CC1 [2-18] | 0.0126 | 0.00126 | 0.794 |  |  | 
13 | C/C(=C\c1ccccc1)CN1CCC(Nc2nccn(CCCN(Cc3ccccc3)C(=O)CC3CCCC3)c2=O)CC1 [1-86] | 0.158 | 0.0158 | 1 |  |  | 
14 | CNCc1ccc(Cn2ccnc(NC3CCN(C/C(C)=C/c4ccccc4)CC3)c2=O)cc1 [1-9] | 0.0316 | 0.00398 | 1.58 |  |  | 
15 | CCCC(=O)N(CCCn1ccnc(NC2CCN(C/C(C)=C/c3ccccc3)CC2)c1=O)Cc1ccccc1 [1-85] | 0.158 | 0.01 | 1.26 |  |  | 
16 | C/C(=C\c1ccccc1)CN1CCC(Nc2nccn(CC(=O)N3CCN(Cc4ccccc4)CC3)c2=O)CC1 [2-30] | 0.0794 | 0.002 | 0.794 |  |  | 
17 | C/C(=C\c1ccccc1)CN1CCN(c2nccn(Cc3ccc4ccccc4c3)c2=O)CC1 [12-7] | 0.126 | 0.126 | 1 |  |  | 

Row | Compound | IC50 (hα2A receptor) [µM] | IC50 (hα2C receptor) [µM] | IC50 (5HT-Transporter) [µM] | h-α2A pIC50 (hα2A receptor) | h-α2C pIC50 (hα2C receptor) | h-5HTT pIC50 (5HT-Transporter)
18 | C/C(=C\c1ccccc1)CN1CCC(Nc2nccn(-c3cccc(N)c3)c2=O)CC1 [1-4] | 0.0316 | 0.00501 | 3.16 |  |  | 
19 | C/C(=C\c1ccccc1)CN1CCC(Nc2nccn(CC(=O)NCC(c3ccccc3)c3ccccc3)c2=O)CC1 [1-68] | 0.158 | 0.0126 | 0.794 |  |  | 
20 | C/C(=C\c1ccccc1)CN1CCC(Nc2nccn(CCCN(C(=O)Cc3ccccc3)c3ccccc3)c2=O)CC1 [1-88] | 0.126 | 0.0126 | 0.631 |  |  | 
21 | C/C(=C\c1ccccc1)CN1CCC(Nc2nccn(CCn3cccc3)c2=O)CC1 [2-47] | 0.2 | 0.0316 | 3.98 |  |  | 
22 | CC(=O)NCc1ccc(Cn2ccnc(NC3CCN(C/C(C)=C/c4ccccc4)CC3)c2=O)cc1 [1-30] | 0.158 | 0.0316 | 1.26 |  |  | 
23 | CC(=O)N1CCN(Cc2ccc(-n3ccnc(NC4CCN(C/C(C)=C/c5ccccc5)CC4)c3=O)cc2)CC1 [2-23] |  |  |  | 6.1 | 7.4 | 5.1
24 | C/C(=C\c1ccccc1)CN1CCC(Nc2nccn(CC(=O)C(C)(C)C)c2=O)CC1 [7-9] | 0.0794 | 0.00794 | 5.01 |  |  | 
25 | C/C(=C\c1ccccc1)CN1CCC(Nc2nccn(CC(=O)NCCCN(C)C)c2=O)CC1 [1-107] | 0.0316 | 0.00158 | 2 |  |  | 
26 | COC(=O)C1CCN(C(=O)c2ccc(-n3ccnc(NC4CCN(C/C(C)=C/c5ccccc5)CC4)c3=O)cc2)CC1 [2-16] | 0.0501 | 0.00501 | 0.501 |  |  | 
27 | C/C(=C\c1ccccc1)CN1CCN(c2nccn(Cc3csc(C)n3)c2=O)CC1 [13-3] | 0.316 | 0.0794 | 6.31 |  |  | 
28 | C/C(=C\c1ccccc1)CN1CCC(Nc2nccn(Cc3ccc(CNS(C)(=O)=O)cc3)c2=O)CC1 [1-156] | 0.158 | 0.0316 | 1.26 |  |  | 
29 | CCOC(=O)N1CCC(NCc2ccc(-n3ccnc(NC4CCN(C/C(C)=C/c5ccccc5)CC4)c3=O)cc2)CC1 [1-128] |  |  |  | 7.0 | 7.9 | 5.9
30 | C/C(=C\c1ccccc1)CN1CCC(Nc2nccn(CC(=O)Nc3ccc(F)cc3)c2=O)CC1 [1-42] | 0.1 | 0.00398 | 0.501 |  |  | 
31 | C/C(=C\c1ccccc1)CN1CCC(Nc2nccn(-c3ccc(CNCCN(C)C)cc3)c2=O)CC1 [1-105] | 0.0398 | 0.00501 | 0.631 |  |  | 
32 | CCN(Cc1ccncc1)C(=O)Cn1ccnc(NC2CCN(C/C(C)=C/c3ccccc3)CC2)c1=O [1-142] | 0.158 | 0.00316 | 1 |  |  | 
33 | C/C(=C\c1ccccc1)CN1CCC(Nc2nccn(-c3cccc(NCc4ccccc4)c3)c2=O)CC1 [1-49] | 0.0251 | 0.00398 | 0.251 |  |  | 
34 | C/C(=C\c1ccccc1)CN1CCC(Nc2nccn(Cc3ccc(C(F)(F)F)cc3)c2=O)CC1 [5-23] | 0.2 | 0.0794 | 0.794 |  |  | 
